Measured values: patent US20210392892A1, “COMPOSITIONS COMPRISING PYRIDINE CARBOXYLATE HERBICIDES AND ACETYL COA CARBOXYLASE (ACCASE) INHIBITOR HERBICIDES” (Corteva Agriscience LLC, priority 2018, published 2021)
Values joined by “and” are separate entries in the source; they are usually repeats but may differ in a detail not shown here. Equal values may be shown once.

Tests used:
Assay in all cases: Greenhouse postemergence herbicidal effect (visual injury)
Format in all cases: in vivo
[1] = test system: ABUTH, Abutilon theophrasti (velvetleaf)
Excerpt: (§1) Seeds of the desired test plant species were planted in a 90:10% v/v (volume/volume) mixture of PRO-MIX® BX (Premier Tech Horticulture, Quakertown, Pa., USA) and PROFILE® GREENS GRADE™ (Profile Products LLC, Buffalo Grove, Ill., USA) planting mixture, which typically has a pH of 5.2 to 6.2 and an organic matter content of at least 50 percent, in plastic pots with a surface area of 103.2 square centimeters (cm^2). In some aspects, to help ensure good germination and healthy plants, a fungicide treatment and/or other chemical or physical treatment was applied. The plants were grown for 7-36 days (d) in a greenhouse with an approximate 14-hour (h) photoperiod which was maintained at about 23° C. during the day and 22° C. during the night. Nutrients and water were added on a regular basis and supplemental lighting was provided with overhead metal halide 1000-Watt lamps as necessary. The plants were employed for testing when they reached the second or third true leaf stage.
(§2) Emulsifiable concentrates of each of each pyridine carboxylate herbicide (Compound A or Compound B) were prepared at 100 grams acid equivalent per liter (g ae/L). The emulsifiable concentrates also included a safener, cloquintocet-mexyl, at 120 grams active ingredient per liter (g ai/L), unless otherwise noted below. An aliquot of each emulsifiable concentrate was placed in a 25 mL glass vial and diluted with an aqueous mixture of 1.25% (v/v) ACTIROB® B esterified rapeseed oil (Bayer Crop Science, Research Triangle Park, N.C., USA) or MSO® Concentrate with LECI-TECH® methylated soybean oil (Loveland Products, Loveland, Colo., USA) to obtain concentrated stock solutions at the highest application rate for each herbicide, based upon a 12 milliliter (mL) application volume at a rate of 187 liters per hectare (L/ha). The concentrated stock solutions were further diluted with an aqueous mixture of 1.25% v/v ACTIROB® B or MSO® Concentrate with LECI-TECH® to obtain stock solutions at reduced application rates for each herbicide. Spray solutions of the herbicide combinations (Compound A or Compound B plus ACCase inhibitor herbicide) were prepared by adding weighed amounts or aliquots of the ACCase inhibitor herbicide to the stock solutions of Compound A or Compound B to form 12-mL spray solutions in two-way combinations.
(§3) The spray solutions were applied to the plant material with an overhead Mandel track sprayer equipped with 8002E nozzles calibrated to deliver 187 L/ha over an application area of 0.503 square meters (m^2) at a spray height of 18 inches (43 centimeters (cm)) above the average plant canopy. Control plants were sprayed in the same manner with the solvent blank. All pyridine carboxylate herbicide (component a) application rates are given as “g ae/ha” and all ACCase inhibitor herbicide (component b) application rates are given as “g ai/ha.”
(§4) The treated plants and control plants were placed in a greenhouse as described above and watered by sub-irrigation to prevent wash-off of the test compounds. After 20-22 d, the condition of the test plants as compared with that of the control plants was determined visually and scored on a scale of 0 to 100 percent where 0 corresponds to no injury and 100 corresponds to complete kill.

[2] = test system: BRSNN, Brassica napus (spring rape); conditions: with cloquintocet-mexyl
Excerpt: as §1, §2, §3, §4

[3] = test system: CIRAR, Cirsium arvense (Canadian thistle)
Excerpt: as §1, §2, §3, §4

[4] = test system: CYPDI, Cyperus difformis (small-flower flatsedge); conditions: with cloquintocet-mexyl
Excerpt: as §1, §2, §3, §4

[5] = test system: GLXMA, Glycine max (soybean)
Excerpt: as §1, §2, §3, §4

[6] = test system: HELAN, Helianthus annuus (common sunflower)
Excerpt: as §1, §2, §3, §4

[7] = test system: IPOHE, Ipomoea hederacea (ivyleaf morningglory)
Excerpt: as §1, §2, §3, §4

[8] = test system: KCHSC, Kochia scoparia (kochia)
Excerpt: as §1, §2, §3, §4

[9] = test system: LEFCH, Leptochloa chinensis (Chinese sprangletop)
Excerpt: as §1, §2, §3, §4

[10] = test system: LOLMG, Lolium multiflorum subsp. gaudini (annual ryegrass); conditions: with cloquintocet-mexyl
Excerpt: as §1, §2, §3, §4

[11] = test system: ORYSA, Oryza sativa (common rice); conditions: with cloquintocet-mexyl
Excerpt: as §1, §2, §3, §4

[12] = test system: POLCO, Polygonum convolvulus (wild buckwheat)
Excerpt: as §1, §2, §3, §4

[13] = test system: SORVU, Sorghum vulgare (grain sorghum)
Excerpt: as §1, §2, §3, §4

[14] = test system: VIOTR, Viola tricolor (wild pansy)
Excerpt: as §1, §2, §3, §4

ZEAMX, Zea mays (maize) = conditions: with cloquintocet-mexyl
Excerpt: as §1, §2, §3, §4

[15] = 7.5 g ae/ha, without cloquintocet-mexyl
[16] = 10 g ae/ha, without cloquintocet-mexyl

## N#CCOC(=O)c1nc(-c2ccc3cc[nH]c3c2F)c(F)c(N)c1Cl [Compound A, cyanomethyl 4-amino-3-chloro-5-fluoro-6-(7-fluoro-1H-indol-6-yl)pyridine-2-carboxylate]
[1]; [15]
  % visual injury, Obs: 70%
[1]; [16]
  % visual injury, Obs: 75%
[1]; ABUTH, Compound A 7.5 g/ha, Fluazifop 0 g/ha
  % visual injury, Obs: 70%
[1]; ABUTH, Compound A 10 g/ha, Fluazifop 0 g/ha
  % visual injury, Obs: 75%
[2]; 7.5 g ae/ha
  % visual injury, Obs: 23%
[2]; 10 g ae/ha
  % visual injury, Obs: 45%
[3]; [15]
  % visual injury, Obs: 40%
[3]; [16]
  % visual injury, Obs: 28%
[3]; CIRAR, Compound A 7.5 g/ha, Fluazifop 0 g/ha
  % visual injury, Obs: 40%
[3]; CIRAR, Compound A 10 g/ha, Fluazifop 0 g/ha
  % visual injury, Obs: 28%
[4]; 7.5 g ae/ha
  % visual injury, Obs: 60%
[4]; 10 g ae/ha
  % visual injury, Obs: 72%
[5]; [15]
  % visual injury, Obs: 85%
[5]; [16]
  % visual injury, Obs: 85%
[5]; GLXMA, Compound A 7.5 g/ha, Fluazifop 0 g/ha
  % visual injury, Obs: 85%
[5]; GLXMA, Compound A 10 g/ha, Fluazifop 0 g/ha
  % visual injury, Obs: 85%
[6]; [15]
  % visual injury, Obs: 95%
[6]; [16]
  % visual injury, Obs: 100%
[6]; HELAN, Compound A 7.5 g/ha, Fluazifop 0 g/ha
  % visual injury, Obs: 95%
[6]; HELAN, Compound A 10 g/ha, Fluazifop 0 g/ha
  % visual injury, Obs: 100%
[7]; [15]
  % visual injury, Obs: 10%
[7]; [16]
  % visual injury, Obs: 15%
[7]; IPOHE, Compound A 7.5 g/ha, Fluazifop 0 g/ha
  % visual injury, Obs: 10%
[7]; IPOHE, Compound A 10 g/ha, Fluazifop 0 g/ha
  % visual injury, Obs: 15%
[8]; 7.5 g ae/ha, with cloquintocet-mexyl
  % visual injury, Obs: 63%
[8]; [15]
  % visual injury, Obs: 73%
[8]; 10 g ae/ha, with cloquintocet-mexyl
  % visual injury, Obs: 70%
[8]; [16]
  % visual injury, Obs: 88%
[8]; KCHSC, Compound A 7.5 g/ha, Fluazifop 0 g/ha
  % visual injury, Obs: 73%
[8]; KCHSC, Compound A 10 g/ha, Fluazifop 0 g/ha
  % visual injury, Obs: 88%
[9]; [15]
  % visual injury, Obs: 0%
[9]; [16]
  % visual injury, Obs: 0% and 5%
[9]; LEFCH, Compound A 7.5 g/ha, Fluazifop 0 g/ha
  % visual injury, Obs: 0%
[9]; LEFCH, Compound A 7.5 g/ha, Haloxyfop-R-methyl 0 g/ha
  % visual injury, Obs: 0%
[9]; LEFCH, Compound A 7.5 g/ha, Quizalofop-P-ethyl 0 g/ha
  % visual injury, Obs: 0%
[9]; LEFCH, Compound A 10 g/ha, Fluazifop 0 g/ha
  % visual injury, Obs: 0%
[9]; LEFCH, Compound A 10 g/ha, Haloxyfop-R-methyl 0 g/ha
  % visual injury, Obs: 5%
[9]; LEFCH, Compound A 10 g/ha, Quizalofop-P-ethyl 0 g/ha
  % visual injury, Obs: 5%
[10]; 7.5 g ae/ha
  % visual injury, Obs: 0%
[10]; 10 g ae/ha
  % visual injury, Obs: 3%
[11]; 7.5 g ae/ha
  % visual injury, Obs: 0%
[11]; 10 g ae/ha
  % visual injury, Obs: 0%
[12]; [15]
  % visual injury, Obs: 80%
[12]; [16]
  % visual injury, Obs: 78%
[12]; POLCO, Compound A 7.5 g/ha, Fluazifop 0 g/ha
  % visual injury, Obs: 80%
[12]; POLCO, Compound A 10 g/ha, Fluazifop 0 g/ha
  % visual injury, Obs: 78%
[13]; [15]
  % visual injury, Obs: 0%
[13]; [16]
  % visual injury, Obs: 0%
[13]; SORVU, Compound A 7.5 g/ha, Fluazifop 0 g/ha
  % visual injury, Obs: 0%
[13]; SORVU, Compound A 10 g/ha, Fluazifop 0 g/ha
  % visual injury, Obs: 0%
[14]; [15]
  % visual injury, Obs: 8%
[14]; [16]
  % visual injury, Obs: 15%
[14]; VIOTR, Compound A 7.5 g/ha, Fluazifop 0 g/ha
  % visual injury, Obs: 8%
[14]; VIOTR, Compound A 10 g/ha, Fluazifop 0 g/ha
  % visual injury, Obs: 15%
ZEAMX, Zea mays (maize); 7.5 g ae/ha
  % visual injury, Obs: 0%
ZEAMX, Zea mays (maize); 10 g ae/ha
  % visual injury, Obs: 0%
